Experimental data as given in patent US11945822B2, “Pyrazolo-triazine and/or pyrazolo-pxrimidine derivatives as selective inhibitor of cyclin dependent kinase” (QURIENT CO., LTD., priority 2018, dated 2024).

Columns and labels:
CDK1/Cyclin B = target: T1, CDK1/Cyclin B (Homo sapiens, UniProt P06493); assay: Enzymatic assay for CDK1 (FRET based LANCE Ultra kinase assay); format: biochemical; settings: read-out: CDK1 enzymatic activity (IC50 range)
T1 construct: purchased Invitrogen PR4768C
Summary of the method: (§1)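 LANCE Ultra TR-FRET: ULight-MBP peptide (68 nM) with ATP at Km, […], 60 min at 23° C. EDTA plus Eu-anti-phospho-MBP added, another 60 min, then 665/615 nm emission read. Compounds tested as 8-dose 4-fold DMSO dilutions.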

CDK2/Cyclin A = target: T2, CDK2/Cyclin A (Homo sapiens, UniProt P24941); assay: Enzymatic assay for CDK2 (FRET based LANCE Ultra kinase assay); format: biochemical; settings: read-out: CDK2 enzymatic activity (IC50 range)
T2 construct: purchased Invitrogen PV6290
Summary of the method: as §1

CDK5/p25 = target: T3, CDK5/p25 (Homo sapiens, UniProt Q00535); assay: Enzymatic assay for CDK5 (FRET based LANCE Ultra kinase assay); format: biochemical; settings: read-out: CDK5 enzymatic activity (IC50 range)
T3 construct: purchased Invitrogen PR8543B
T3 sequence (Q00535 whole entry): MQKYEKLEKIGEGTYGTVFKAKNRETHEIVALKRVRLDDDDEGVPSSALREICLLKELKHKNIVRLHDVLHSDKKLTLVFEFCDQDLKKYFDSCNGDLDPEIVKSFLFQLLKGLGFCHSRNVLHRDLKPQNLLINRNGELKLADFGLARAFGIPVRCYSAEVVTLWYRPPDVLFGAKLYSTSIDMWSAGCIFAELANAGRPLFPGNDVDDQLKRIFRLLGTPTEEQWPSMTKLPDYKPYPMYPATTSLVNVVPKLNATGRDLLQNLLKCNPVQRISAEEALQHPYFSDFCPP
T3 sequence (Q15078 99-307 partner limits assumed): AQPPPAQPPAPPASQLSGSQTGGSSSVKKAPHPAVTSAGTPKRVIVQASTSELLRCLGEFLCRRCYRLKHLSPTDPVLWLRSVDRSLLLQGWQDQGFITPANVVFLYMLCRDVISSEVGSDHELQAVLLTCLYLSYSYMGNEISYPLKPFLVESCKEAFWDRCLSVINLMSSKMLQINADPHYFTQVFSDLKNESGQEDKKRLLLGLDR
Summary of the method: as §1

CDK7/Cyclin H/MNAT1 = target: T4, CDK7/Cyclin H/MNAT1 (Homo sapiens, UniProt P50613); assay: Enzymatic assay for CDK7 (FRET based LANCE Ultra kinase assay); format: biochemical; settings: for IC50: read-out: CDK7 enzymatic activity (IC50 range)
T4 construct: purchased Invitrogen PR6749B
T4 sequence (P50613 whole entry): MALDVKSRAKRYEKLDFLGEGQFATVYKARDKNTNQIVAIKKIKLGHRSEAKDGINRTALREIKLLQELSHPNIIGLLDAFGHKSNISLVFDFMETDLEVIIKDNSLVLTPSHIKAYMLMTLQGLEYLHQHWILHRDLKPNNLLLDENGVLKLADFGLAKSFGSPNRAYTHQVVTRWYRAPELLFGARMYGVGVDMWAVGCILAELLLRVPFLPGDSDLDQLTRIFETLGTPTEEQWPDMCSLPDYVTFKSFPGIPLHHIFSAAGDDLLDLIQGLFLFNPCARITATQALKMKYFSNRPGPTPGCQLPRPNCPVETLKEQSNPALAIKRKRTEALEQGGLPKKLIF
T4 sequence (P51946 whole entry partner): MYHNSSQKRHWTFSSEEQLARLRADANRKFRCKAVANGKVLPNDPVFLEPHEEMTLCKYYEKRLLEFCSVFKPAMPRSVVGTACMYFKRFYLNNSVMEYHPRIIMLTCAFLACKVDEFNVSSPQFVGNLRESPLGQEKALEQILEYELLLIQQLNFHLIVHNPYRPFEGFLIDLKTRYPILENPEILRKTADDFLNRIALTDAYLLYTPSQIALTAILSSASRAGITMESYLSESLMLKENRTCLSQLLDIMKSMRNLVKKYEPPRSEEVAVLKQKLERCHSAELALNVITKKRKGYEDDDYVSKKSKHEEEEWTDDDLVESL
T4 sequence (P51948 whole entry partner): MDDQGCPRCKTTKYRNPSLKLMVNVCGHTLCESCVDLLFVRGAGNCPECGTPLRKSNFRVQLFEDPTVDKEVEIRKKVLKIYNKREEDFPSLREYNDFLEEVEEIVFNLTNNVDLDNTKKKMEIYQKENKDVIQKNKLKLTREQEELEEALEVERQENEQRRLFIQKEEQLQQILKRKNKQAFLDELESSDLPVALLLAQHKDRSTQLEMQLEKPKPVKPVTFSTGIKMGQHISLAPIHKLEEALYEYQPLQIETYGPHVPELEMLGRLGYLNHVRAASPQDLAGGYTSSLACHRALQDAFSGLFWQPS
Summary of the method: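 Inhibition was measured at Km ATP by time-resolved FRET between a Eu anti-phospho antibody and a phosphorylated ULight peptide. The enzyme was the purified CDK7/cyclin complex, and data were curve-fitted.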

H460 = assay: Cellular H460 viability assay (CellTiter-Glo, 72 hours); format: cell-based; settings: Homo sapiens, NCI-H460
Summary of the method: (§2)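 Mycoplasma-tested cells, seeded at densities chosen for each line, received compound or DMSO vehicle (under 0.1% final) for 72 hours. Duplicate cultures were then read for viability by CellTiter-Glo luminescence.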

MOLT-4 = assay: Cellular MOLT-4 viability assay (CellTiter-Glo, 72 hours); format: cell-based; settings: Homo sapiens, MOLT4 viability assay
Description: All cell lines were routinely tested for mycoplasma.
The effect of the CDK7 inhibitor to inhibit the growth of target cancer cells was evaluated through the 72 hours time period of viability assay. Briefly, the candidate cell line ware plated in 96 well plate at the following density of cells respectively. […] DMSO solvent without compound served as a control and final DMSO concentration less than 0.1%. After 72 hours of incubation at 37° C., 5% CO2 incubator, cells were analyzed for the viability using the CellTiter-Glo Luminescent Cell Viability Assay (Promega, Cat #G7570). All viability assays were performed in duplicate and Luminescence was read using an Envision (Perkin Elmer, USA). Data was analyzed using XLfit software.

MV4-11 = assay: Cellular MV4-11 viability assay (CellTiter-Glo, 72 hours); format: cell-based; settings: Homo sapiens
Summary of the method: as §2

T1 sequence (P06493 whole entry): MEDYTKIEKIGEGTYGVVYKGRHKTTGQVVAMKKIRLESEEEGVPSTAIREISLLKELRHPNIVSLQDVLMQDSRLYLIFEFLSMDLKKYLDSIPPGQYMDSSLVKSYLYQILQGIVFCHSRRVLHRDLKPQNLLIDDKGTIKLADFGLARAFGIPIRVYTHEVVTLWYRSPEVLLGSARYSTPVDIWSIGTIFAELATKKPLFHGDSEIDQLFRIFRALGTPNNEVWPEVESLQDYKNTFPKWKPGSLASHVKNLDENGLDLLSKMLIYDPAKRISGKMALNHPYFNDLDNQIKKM
T1 sequence (P14635 whole entry partner): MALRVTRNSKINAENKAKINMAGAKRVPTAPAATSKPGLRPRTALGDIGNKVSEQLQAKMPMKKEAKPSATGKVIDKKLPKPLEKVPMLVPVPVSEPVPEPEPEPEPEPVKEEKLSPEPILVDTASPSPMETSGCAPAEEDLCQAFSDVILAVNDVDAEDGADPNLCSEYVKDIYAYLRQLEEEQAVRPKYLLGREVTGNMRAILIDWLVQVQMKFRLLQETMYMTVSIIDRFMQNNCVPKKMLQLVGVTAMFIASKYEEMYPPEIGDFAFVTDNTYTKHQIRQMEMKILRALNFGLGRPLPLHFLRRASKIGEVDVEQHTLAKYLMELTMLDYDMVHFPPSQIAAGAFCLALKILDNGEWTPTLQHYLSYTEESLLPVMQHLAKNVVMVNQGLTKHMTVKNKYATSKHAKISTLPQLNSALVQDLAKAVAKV

Row | SMILES | IC50 (CDK1/Cyclin B) [µM] | IC50 (CDK2/Cyclin A) [µM] | IC50 (CDK5/p25) [µM] | CDK1/CDK7: Selectivity of CDK7 inhibition over CDK1 inhibition (CDK7/Cyclin H/MNAT1) | CDK2/CDK7: Selectivity of CDK7 inhibition over CDK2 inhibition (CDK7/Cyclin H/MNAT1) | CDK5/CDK7: Selectivity of CDK7 inhibition over CDK5 inhibition (CDK7/Cyclin H/MNAT1) | IC50 (CDK7/Cyclin H/MNAT1) [µM] | IC50 (H460) [µM] | IC50 (MOLT-4) [µM] | IC50 (MV4-11) [µM]
1 | CC(C)c1cnn2c(NCc3ccccc3OCc3ccccc3)nc(N3CCC(N)CC3)nc12 [Compound 57] | > 1 | > 1 | 0.1 to 1 | A (A=greater than 200 fold) | A (A=greater than 200 fold) | B (B=less than 200 fold, but greater than 20 fold) | < 0.1 | 1 to 10 | 1 to 10 | –
2 | CC(C)c1cnn2c(NCc3ccncc3-n3cccn3)nc(N3CCC(N)CC3)nc12 [Compound 6] | – | – | – | – | – | – | – | < 1 | > 10 | –
3 | CC(C)c1cnn2c(NCc3ccccc3-n3ccc4ccccc43)nc(N3CCC(N)CC3)nc12 [Compound 68] | – | – | – | – | – | – | – | < 1 | 1 to 10 | –
4 | CC(C)c1cnn2c(NCc3cccc(NC(=O)c4cccc(NC(=O)CCCN(C)C)c4)c3)nc(N3CCC(N)CC3)nc12 [Compound 70] | > 1 | 0.1 to 1 | 0.1 to 1 | A (A=greater than 200 fold) | B (B=less than 200 fold, but greater than 20 fold) | B (B=less than 200 fold, but greater than 20 fold) | < 0.1 | 1 to 10 | > 10 | –
5 | CC(C)c1cnn2c(NCc3ccccc3-c3ccco3)nc(N3CCC(N)CC3)nc12 [Compound 45] | – | – | – | – | – | – | – | < 1 | 1 to 10 | –
6 | CC(C)c1cnn2c(NCc3ccsc3-n3cccn3)nc(N3CCC(N)CC3)nc12 [Compound 62] | 0.1 to 1 | 0.1 to 1 | < 0.1 | B (B=less than 200 fold, but greater than 20 fold) | B (B=less than 200 fold, but greater than 20 fold) | C (C=less than 20 fold) | < 0.1 | < 1 | 1 to 10 | –
7 | CC(=O)N(C)c1ccccc1CNc1nc(N2CCC(N)CC2)nc2c(C(C)C)cnn12 [Compound 64] | > 1 | > 1 | 0.1 to 1 | A (A=greater than 200 fold) | A (A=greater than 200 fold) | B (B=less than 200 fold, but greater than 20 fold) | < 0.1 | < 1 | > 10 | < 1
8 | CC(C)c1cnn2c(NCc3ccccc3Oc3ccc4ccccc4n3)nc(N3CCC(N)CC3)nc12 [Compound 74] | > 1 | > 1 | 0.1 to 1 | B (B=less than 200 fold, but greater than 20 fold) | B (B=less than 200 fold, but greater than 20 fold) | B (B=less than 200 fold, but greater than 20 fold) | < 0.1 | 1 to 10 | > 10 | –
9 | CCCc1ccccc1CNc1nc(N2CCC(N)CC2)nc2c(C(C)C)cnn12 [Compound 55] | 0.1 to 1 | 0.1 to 1 | 0.1 to 1 | B (B=less than 200 fold, but greater than 20 fold) | B (B=less than 200 fold, but greater than 20 fold) | C (C=less than 20 fold) | < 0.1 | 1 to 10 | 1 to 10 | –
10 | Cc1ccc(-n2cccn2)cc1CNc1nc(N2CCC(N)CC2)nc2c(C(C)C)cnn12 [Compound 75] | > 1 | > 1 | 0.1 to 1 | A (A=greater than 200 fold) | B (B=less than 200 fold, but greater than 20 fold) | B (B=less than 200 fold, but greater than 20 fold) | < 0.1 | 1 to 10 | 1 to 10 | –
11 | CC(C)c1cnn2c(NCc3ncccc3-n3cccn3)nc(N3CCC(N)CC3)nc12 [Compound 5] | – | – | – | – | – | – | – | 1 to 10 | > 10 | –
12 | NC1CCN(c2nc(NCc3ccccc3-n3cccn3)n3ncc(C(F)(F)F)c3n2)CC1 [Compound 41] | – | – | – | – | – | – | – | < 1 | > 10 | –
13 | CC(C)c1cnn2c(NCc3cccc(Oc4ccc(F)c(NC(=O)CCCN(C)C)c4)c3)nc(N3CCC(N)CC3)nc12 [Compound 93] | > 1 | 0.1 to 1 | 0.1 to 1 | A (A=greater than 200 fold) | B (B=less than 200 fold, but greater than 20 fold) | B (B=less than 200 fold, but greater than 20 fold) | < 0.1 | – | 1 to 10 | –
14 | CC(C)c1cnn2c(NCc3cccc4cccnc34)nc(N3CCC(N)CC3)nc12 [Compound 9] | 0.1 to 1 | 0.1 to 1 | < 0.1 | B (B=less than 200 fold, but greater than 20 fold) | B (B=less than 200 fold, but greater than 20 fold) | C (C=less than 20 fold) | < 0.1 | < 1 | 1 to 10 | –
15 | CC(C)c1cnn2c(NCc3ccccc3-n3cccn3)nc(N3CCN(C)CC3)nc12 [Compound 3] | > 1 | > 1 | 0.1 to 1 | A (A=greater than 200 fold) | B (B=less than 200 fold, but greater than 20 fold) | B (B=less than 200 fold, but greater than 20 fold) | < 0.1 | 1 to 10 | > 10 | –
16 | CC(C)c1cnn2c(NCc3ccccc3-n3cccn3)nc(-c3ccc(Cl)c(OC4CCNCC4)c3)nc12 [Compound 173] | > 1 | > 1 | 0.1 to 1 | A (A=greater than 200 fold) | B (B=less than 200 fold, but greater than 20 fold) | B (B=less than 200 fold, but greater than 20 fold) | < 0.1 | 1 to 10 | 1 to 10 | –
17 | CN(C)c1cnn2c(NCc3ccccc3-n3cccn3)nc(N3CCC(N)CC3)nc12 [Compound 60] | – | – | – | – | – | – | – | < 1 | > 10 | –
18 | CC(C)c1cnn2c(NCc3cccc(Oc4ccc(Cl)c(NC(=O)CCCN(C)C)c4)c3)nc(N3CCC(N)CC3)nc12 [Compound 94] | 0.1 to 1 | 0.1 to 1 | 0.1 to 1 | A (A=greater than 200 fold) | B (B=less than 200 fold, but greater than 20 fold) | B (B=less than 200 fold, but greater than 20 fold) | < 0.1 | – | 1 to 10 | –
